The series is described as follows: Water solubility at 20° C. and pH 6.5 (turbid appearance, 10 mg peptide in 10 ml de-mineralised water). In kind it is physicochemical.

Ends that are not written are not given here.

For the compound `C[C@H](N)C(=O)N[C@@H](C)C(=O)N[C@@H](C)C(=O)N[C@@H](C)C(=O)N[C@@H](C)C(=O)N[C@@H](C)C(=O)O` [AAAAAA], the “Peptide category (water solubility)” value is reported as “Insoluble peptides”.
Next, AAAAAAAA [AAAAAAAA]: “Insoluble peptides”; DDDDDD [DDDDDD]: “Soluble peptides”.
With EAEWEY [EAEWEY], the “Peptide category (water solubility)” value is recorded as “Soluble peptides”.
In the case of GSGGSG [GSGGSG], the “Peptide category (water solubility)” value is “Soluble peptides”.
Next, LLLLLL [LLLLLL]: “Insoluble peptides”; VEWEME [VEWEME]: “Soluble peptides”.

(Values after US20090169700A1, “Healthy Food Product” (priority 2006, published 2009).)
